Test results from the supplement of paper PMC11061612.

Assays:
[1] = tested on: SK-GT-4 (Esophageal Adenocarcinoma); test: combination Emax (second highest fraction inhibited in the dose matrix, 72 h); higher = more inhibition; extreme values may be limits of the assay
Procedure, shortened: (§1)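 After 24 hours at 37°C and 5% CO2 in 1536-well plates, cells in DMEM/F12 or RPMI plus 10% FBS received two-drug dose matrices for 72 hours. Viability came from CellTiter-Glo 2.0 luminescence and was scaled as inhibition, anchored at 0 by vehicle wells and at 1 by blank wells. Combination Emax is taken as the second-highest inhibition in the matrix, and Bliss excess as the observed combination effect less EA + EB − EA·EB, with EA and EB the single-agent effects.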

[2] = tested on: NCI-H520 (Squamous Cell Lung Carcinoma); test: as above
Procedure, shortened: as §1

[3] = tested on: DMS-114 (Small Cell Lung Carcinoma); test: as above
Procedure, shortened: as §1

[4] = tested on: VMRC-RCZ (Kidney Carcinoma); test: as above
Procedure, shortened: as §1

[5] = tested on: KU812 (Chronic Myelogenous Leukemia); test: as above
Procedure, shortened: as §1

[6] = tested on: SJSA-1 (Osteosarcoma); test: as above
Procedure, shortened: as §1

[7] = tested on: COR-L279 (Small Cell Lung Carcinoma); test: as above
Procedure, shortened: as §1

[8] = tested on: CW-2 (Colorectal Carcinoma); test: as above
Procedure, shortened: as §1

[9] = tested on: T-T (Esophageal Squamous Cell Carcinoma); test: as above
Procedure, shortened: as §1

[10] = tested on: M059J (Glioblastoma); test: as above
Procedure, shortened: as §1

[11] = tested on: NCI-H2731 (Mesothelioma); test: as above
Procedure, shortened: as §1

[12] = tested on: NCI-H929 (Plasma Cell Myeloma); test: as above
Procedure, shortened: as §1

[13] = tested on: MOG-G-CCM (Low Grade Glioma); test: as above
Procedure, shortened: as §1

[14] = tested on: NCI-H526 (Small Cell Lung Carcinoma); test: as above
Procedure, shortened: as §1

[15] = tested on: KP-3 (Pancreatic Carcinoma); test: as above
Procedure, shortened: as §1

[16] = tested on: OCI-AML3 (Acute Myeloid Leukemia); test: as above
Procedure, shortened: as §1

[17] = tested on: KYSE-270 (Esophageal Squamous Cell Carcinoma); test: as above
Procedure, shortened: as §1

[18] = tested on: MN-60 (B-Lymphoblastic Leukemia); test: as above
Procedure, shortened: as §1

[19] = tested on: NCI-H3122 (Lung Adenocarcinoma); test: as above
Procedure, shortened: as §1

[20] = tested on: ST486 (Burkitt's Lymphoma); test: as above
Procedure, shortened: as §1

[21] = tested on: NCCIT (Other Solid Carcinomas); test: as above
Procedure, shortened: as §1

[22] = tested on: SK-GT-4 (Esophageal Adenocarcinoma); test: Bliss excess, mean over the matrix (fraction); higher = more synergy
Procedure, shortened: as §1

[23] = tested on: NCI-H520 (Squamous Cell Lung Carcinoma); test: as above
Procedure, shortened: as §1

[24] = tested on: DMS-114 (Small Cell Lung Carcinoma); test: as above
Procedure, shortened: as §1

[25] = tested on: VMRC-RCZ (Kidney Carcinoma); test: as above
Procedure, shortened: as §1

[26] = tested on: KU812 (Chronic Myelogenous Leukemia); test: as above
Procedure, shortened: as §1

[27] = tested on: SJSA-1 (Osteosarcoma); test: as above
Procedure, shortened: as §1

[28] = tested on: COR-L279 (Small Cell Lung Carcinoma); test: as above
Procedure, shortened: as §1

[29] = tested on: CW-2 (Colorectal Carcinoma); test: as above
Procedure, shortened: as §1

[30] = tested on: T-T (Esophageal Squamous Cell Carcinoma); test: as above
Procedure, shortened: as §1

[31] = tested on: M059J (Glioblastoma); test: as above
Procedure, shortened: as §1

[32] = tested on: NCI-H2731 (Mesothelioma); test: as above
Procedure, shortened: as §1

[33] = tested on: NCI-H929 (Plasma Cell Myeloma); test: as above
Procedure, shortened: as §1

[34] = tested on: MOG-G-CCM (Low Grade Glioma); test: as above
Procedure, shortened: as §1

[35] = tested on: NCI-H526 (Small Cell Lung Carcinoma); test: as above
Procedure, shortened: as §1

[36] = tested on: KP-3 (Pancreatic Carcinoma); test: as above
Procedure, shortened: as §1

[37] = tested on: OCI-AML3 (Acute Myeloid Leukemia); test: as above
Procedure, shortened: as §1

[38] = tested on: KYSE-270 (Esophageal Squamous Cell Carcinoma); test: as above
Procedure, shortened: as §1

[39] = tested on: MN-60 (B-Lymphoblastic Leukemia); test: as above
Procedure, shortened: as §1

[40] = tested on: NCI-H3122 (Lung Adenocarcinoma); test: as above
Procedure, shortened: as §1

[41] = tested on: ST486 (Burkitt's Lymphoma); test: as above
Procedure, shortened: as §1

[42] = tested on: NCCIT (Other Solid Carcinomas); test: as above
Procedure, shortened: as §1
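Throughout, for Bliss excess, mean over the matrix: after 72 h of two-drug dosing.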

With O=C(c1cc(Cc2n[nH]c(=O)c3ccccc23)ccc1F)N1CCN(C(=O)C2CC2)CC1 [Olaparib] + CN(CC[C@H](CSC1=CC=CC=C1)NC2=C(C=C(C=C2)S(=O)(=O)NC(=O)C3=CC=C(C=C3)N4CCC(CC4)[C@H](C5=CC=CC=C5C6=CC=C(C=C6)Cl)O)S(=O)(=O)C(F)(F)F)CCO [AZD4320] (first compound max 10 µM, 7x7, partner max 1 µM) the “combination Emax” value [1] was 0.154, the “combination Emax” value [2] was 0.125 and the “combination Emax” value [3] was 0.214. For the same molecule, the “combination Emax” value [4] was 0.0911, the “combination Emax” value [5] was 0.862 and the “combination Emax” value [6] was 0.133. For the same molecule, the “combination Emax” value [7] was 0.992, the “combination Emax” value [8] was 0.113 and the “combination Emax” value [9] was 0.233. The “combination Emax” value [10] was 0.321, the “combination Emax” value [11] was 0.0908 and the “combination Emax” value [12] was 0.142. The “combination Emax” value [13] was 0.445, the “combination Emax” value [14] was 0.916 and the “combination Emax” value [15] was 0.104. The “combination Emax” value [16] was 0.548, the “combination Emax” value [17] was 0.383 and the “combination Emax” value [18] was 0.25. The “combination Emax” value [19] was 0.223, the “combination Emax” value [20] was 0.754 and the “combination Emax” value [21] was 0.198. The Bliss excess [22] was -0.0508, the Bliss excess [23] was -0.0283 and the Bliss excess [24] was -0.0971. It also gave a Bliss excess [25] of -0.064, a Bliss excess [26] of -0.0517 and a Bliss excess [27] of -0.0509. For the same molecule, the Bliss excess [28] was 0.0282, the Bliss excess [29] was -0.0353 and the Bliss excess [30] was -0.0174. For the same molecule, the Bliss excess [31] was -0.0174, the Bliss excess [32] was -0.0491 and the Bliss excess [33] was -0.0336. The Bliss excess [34] was -0.0282, the Bliss excess [35] was 0.0311 and the Bliss excess [36] was -0.0422. It also gave a Bliss excess [37] of 0.057, a Bliss excess [38] of -0.0221 and a Bliss excess [39] of -0.044. For the same molecule, the Bliss excess [40] was -0.0184, the Bliss excess [41] was -0.0192 and the Bliss excess [42] was -0.0075.

For O=C(c1cc(Cc2n[nH]c(=O)c3ccccc23)ccc1F)N1CCN(C(=O)C2CC2)CC1 [Olaparib] + CC1(C)CCC(CN2CCN(c3ccc(C(=O)NS(=O)(=O)c4ccc(NCC5CCOCC5)c([N+](=O)[O-])c4)c(Oc4cnc5[nH]ccc5c4)c3)CC2)=C(c2ccc(Cl)cc2)C1 [Venetoclax] (first compound max 10 µM, 7x7, partner max 1 µM), the “combination Emax” value [1] was 0.101, the “combination Emax” value [2] was 0.119 and the “combination Emax” value [3] was 0.262. The “combination Emax” value [4] was 0.0266, the “combination Emax” value [5] was 0.403 and the “combination Emax” value [6] was 0.118. For the same molecule, the “combination Emax” value [7] was 0.943, the “combination Emax” value [8] was 0.118 and the “combination Emax” value [9] was 0.177. The “combination Emax” value [10] was 0.291, the “combination Emax” value [11] was 0.0659 and the “combination Emax” value [12] was 0.21. For the same molecule, the “combination Emax” value [13] was 0.168, the “combination Emax” value [14] was 0.862 and the “combination Emax” value [15] was 0.0923. For the same molecule, the “combination Emax” value [16] was 0.427, the “combination Emax” value [17] was 0.302 and the “combination Emax” value [18] was 0.222. The “combination Emax” value [19] was 0.226, the “combination Emax” value [20] was 0.217 and the “combination Emax” value [21] was 0.231. For the same molecule, the Bliss excess [22] was -0.056, the Bliss excess [23] was -0.0201 and the Bliss excess [24] was -0.0446. For the same molecule, the Bliss excess [25] was -0.052, the Bliss excess [26] was -0.0241 and the Bliss excess [27] was -0.0375. For the same molecule, the Bliss excess [28] was 0.0109, the Bliss excess [29] was -0.0299 and the Bliss excess [30] was -0.0375. It also gave a Bliss excess [31] of -0.0001, a Bliss excess [32] of -0.047 and a Bliss excess [33] of -0.0036. For the same molecule, the Bliss excess [34] was -0.0459, the Bliss excess [35] was 0.0372 and the Bliss excess [36] was -0.0562. The Bliss excess [37] was 0.0202, the Bliss excess [38] was -0.0027 and the Bliss excess [39] was -0.0502. It also gave a Bliss excess [40] of -0.0681, a Bliss excess [41] of -0.0134 and a Bliss excess [42] of 0.0127.

For C[C@@H]1COCCN1c1cc(C2([S@](C)(=N)=O)CC2)nc(-c2ccnc3[nH]ccc23)n1 [AZD6738] + Nc1ccn([C@@H]2O[C@H](CO)[C@@H](O)C2(F)F)c(=O)n1 [Gemcitabine] (first compound max 10 µM, 7x7, partner max 0.3 µM), the “combination Emax” value [1] was 0.585, the “combination Emax” value [2] was 0.916 and the “combination Emax” value [3] was 0.78. For the same molecule, the “combination Emax” value [4] was 0.542, the “combination Emax” value [5] was 0.853 and the “combination Emax” value [6] was 0.722. For the same molecule, the “combination Emax” value [7] was 0.995, the “combination Emax” value [8] was 0.659 and the “combination Emax” value [9] was 0.897. For the same molecule, the “combination Emax” value [10] was 0.823, the “combination Emax” value [11] was 0.511 and the “combination Emax” value [12] was 0.906. The “combination Emax” value [13] was 0.783, the “combination Emax” value [14] was 0.973 and the “combination Emax” value [16] was 0.953. For the same molecule, the “combination Emax” value [17] was 1, the “combination Emax” value [18] was 0.72 and the “combination Emax” value [19] was 0.899. For the same molecule, the “combination Emax” value [20] was 0.98, the “combination Emax” value [21] was 0.839 and the Bliss excess [22] was 0.023. It also gave a Bliss excess [23] of 0.0434, a Bliss excess [24] of 0.0549 and a Bliss excess [25] of 0.0193. For the same molecule, the Bliss excess [26] was -0.0077, the Bliss excess [27] was -0.0104 and the Bliss excess [28] was 0.0205. The Bliss excess [29] was 0.0109, the Bliss excess [30] was 0.221 and the Bliss excess [31] was 0.0209. The Bliss excess [32] was 0.0371, the Bliss excess [33] was 0 and the Bliss excess [34] was 0.0311. For the same molecule, the Bliss excess [35] was 0.0678, the Bliss excess [37] was -0.0143 and the Bliss excess [38] was 0.0806. The Bliss excess [39] was -0.0375, the Bliss excess [40] was 0.0297 and the Bliss excess [41] was 0.0362. The Bliss excess [42] was 0.107.
